What was measured:
rat mGlu1a receptor = biological target: T1, rat mGlu1a receptor (Rattus norvegicus, UniProt P23385); experiment: [Ca2+]i measurement (FLIPR) on mGlu1a transfected EBNA cells; format: cell-based; conditions: for agonist or antagonist on group I mGlu receptor: mode of action, in words; for EC50: mGlu1a transfected EBNA cells, Fluo-3 AM, antagonists tested against 10 μM glutamate as agonist
T1 construct: expressed in transfected cells; host or cells: EBNA cells (transient transfection)
T1 sequence (P23385 19-1199): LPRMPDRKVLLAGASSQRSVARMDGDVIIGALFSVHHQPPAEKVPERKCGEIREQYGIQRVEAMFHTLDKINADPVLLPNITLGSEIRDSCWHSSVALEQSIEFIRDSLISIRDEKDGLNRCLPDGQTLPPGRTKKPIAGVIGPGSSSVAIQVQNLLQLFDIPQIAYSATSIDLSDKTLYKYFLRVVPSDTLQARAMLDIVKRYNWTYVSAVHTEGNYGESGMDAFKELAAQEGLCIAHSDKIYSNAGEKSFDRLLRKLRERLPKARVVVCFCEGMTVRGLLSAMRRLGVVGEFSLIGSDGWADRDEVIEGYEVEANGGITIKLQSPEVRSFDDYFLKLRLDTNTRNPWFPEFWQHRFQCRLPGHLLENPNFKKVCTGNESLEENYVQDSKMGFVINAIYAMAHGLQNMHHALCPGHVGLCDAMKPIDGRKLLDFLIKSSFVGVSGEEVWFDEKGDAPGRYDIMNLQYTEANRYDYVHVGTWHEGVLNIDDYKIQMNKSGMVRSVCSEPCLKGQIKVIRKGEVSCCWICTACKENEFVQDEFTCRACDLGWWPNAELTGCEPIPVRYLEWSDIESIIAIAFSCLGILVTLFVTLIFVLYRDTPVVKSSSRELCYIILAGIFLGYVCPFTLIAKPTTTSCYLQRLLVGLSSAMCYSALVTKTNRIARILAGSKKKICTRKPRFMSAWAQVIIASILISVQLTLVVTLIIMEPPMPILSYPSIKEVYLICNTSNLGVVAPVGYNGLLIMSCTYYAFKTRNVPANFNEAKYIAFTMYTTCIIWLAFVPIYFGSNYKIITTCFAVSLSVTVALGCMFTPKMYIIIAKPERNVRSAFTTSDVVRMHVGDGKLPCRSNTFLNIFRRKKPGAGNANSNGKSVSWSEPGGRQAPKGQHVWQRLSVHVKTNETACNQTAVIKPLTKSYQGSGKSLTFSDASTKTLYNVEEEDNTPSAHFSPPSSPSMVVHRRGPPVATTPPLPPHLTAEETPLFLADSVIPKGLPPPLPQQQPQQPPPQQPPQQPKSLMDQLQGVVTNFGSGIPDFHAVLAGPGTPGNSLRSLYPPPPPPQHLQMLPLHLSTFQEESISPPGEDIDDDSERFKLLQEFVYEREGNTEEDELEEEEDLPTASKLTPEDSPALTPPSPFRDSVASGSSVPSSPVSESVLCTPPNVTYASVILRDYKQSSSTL
Method: cDNA encoding for rat mGlula receptor obtained from Prof.
[Ca^2+]i measurement were performed on mGlu1a transfected EBNA cells after incubation of the cells with Fluo-3 AM (0.5 μM final concentration) for 1 hour at 37° C. followed by 4 washes with assay buffer (DMEM supplemented with Hank's salt and 20 mM HEPES). [Ca^2+]i measurement were done using a fluorometric imaging plate reader (FLIPR, Molecular Devices Corporation, La Jolla, Calif., USA). When compounds were evaluated as antagonists they were tested against 10 μM glutamate as agonist.
The inhibition (antagonists) or activation (agonists) curves were fitted with a four parameter logistic equation giving EC50, IC50and Hill coefficient using the iterative non linear curve fitting software Origin (Microcal Software Inc., Northampton, Mass., USA).

SMILES	agonist or antagonist on group I mGlu receptor (rat mGlu1a receptor)	melting point	EC50 (rat mGlu1a receptor)
O=C(NCC1CC1)C(c1ccccc1)c1ccccn1 (racemic) [Example 22, (RS)-N-Cyclopropylmethyl-2-phenyl-2-pyridin-2-yl-acetamide]	antagonistic activity		
CCCNC(=O)C(C)(c1ccccc1)c1ccccc1 [Example 3, 2,2-Diphenyl-N-propyl-propionamide]	antagonistic activity	62 °C	12.7 µM
CCCCCNC(=O)C(C)(c1ccccc1)c1ccccc1 [Example 4, N-Pentyl-2,2-diphenyl-propionamide]	antagonistic activity		1 µM
CCCCNC(=O)C(C)(c1ccccc1)c1ccccc1 [Example 6, N-Butyl-2,2-diphenyl-propionamide]	antagonistic activity		
O=C(NC1CC1)C(c1ccccc1)c1ccccc1 [Example 7, N-Cyclopropyl-2,2-diphenyl-acetamide]		292 °C	17 µM
O=C(NCC1CC1)C(c1ccccc1)c1ccccc1 [Example 10, N-Cyclopropylmethyl-2,2-diphenyl-acetamide]		130 °C	
CC(C(=O)NCC1CC1)(c1ccccc1)c1ccccc1 [Example 11, N-Cyclopropylmethyl-2,2-diphenyl-propionamide]	antagonistic activity	380 °C	
C=CCNC(=O)C(c1ccccc1)c1ccccc1 [Example 13, N-Allyl-2,2-diphenyl-acetamide]		186 °C	
C#CCNC(=O)C(c1ccccc1)c1ccccc1 [Example 14, 2,2-Diphenyl-N-prop-2-ynyl-acetamide]		131 °C	
CCCC=CCNC(=O)C(c1ccccc1)c1ccccc1 [Example 16, N-Hex-2-enyl-2,2-diphenyl-acetamide]		81 °C	
CC(C(=O)NCC1CCC1)(c1ccccc1)c1ccccc1 [Example 25, N-Cyclobutylmethyl-2,2-diphenyl-propionamide]	antagonistic activity	79 °C	
O=C(NCCCC(F)(F)F)C(c1ccccc1)c1ccccc1 [Example 26, 2,2-Diphenyl-N-(4,4,4-trifluoro-butyl)-acetamide]	antagonistic activity	166 °C	15 µM
CC(C(=O)NCCCC(F)(F)F)(c1ccccc1)c1ccccc1 [Example 27, 2,2-Diphenyl-N-(4,4,4-trifluoro-butyl)-propionamide]	antagonistic activity	82 °C	

Other lines, results leading:

agonist or antagonist on group I mGlu receptor (rat mGlu1a receptor)	melting point	EC50 (rat mGlu1a receptor)	SMILES
	101 °C		CCCCCNC(=O)C(c1ccccc1)c1ccccc1 [Example 1, N -Pentyl-2,2-diphenyl-acetamide]
	90 °C	2.12 µM	CCCNC(=O)C(c1ccccc1)c1ccccc1 [Example 2, 2,2-Diphenyl-N-propyl-acetamide]
	96 °C		CCCCNC(=O)C(c1ccccc1)c1ccccc1 [Example 5, N-Butyl-2,2-diphenyl-acetamide]
	90 °C		CCCCCCCNC(=O)C(c1ccccc1)c1ccccc1 [Example 8, N-Heptyl-2,2-diphenyl-acetamide]
	100 °C		CCCCCCNC(=O)C(c1ccccc1)c1ccccc1 [Example 9, N-Hexyl-2,2-diphenyl-acetamide]
	87 °C		CCNC(=O)C(c1ccccc1)c1ccccc1 [Example 12, N-Ethyl-2,2-diphenyl-acetamide]
	128 °C		CC(C)CCNC(=O)C(c1ccccc1)c1ccccc1 [Example 15, N-(3-Methyl-butyl)-2,2-diphenyl-acetamide]
	85 °C		CC=CCCCNC(=O)C(c1ccccc1)c1ccccc1 [Example 17, N-Hex-4-enyl-2,2-diphenyl-acetamide]
	74.2 to 75 °C		COCCCCCNC(=O)C(c1ccccc1)c1ccccc1 [Example 18, N-(5-Methoxy-pentyl)-2,2-diphenyl-acetamide]
	75.5 to 76.8 °C	2.98 µM	COCCCCNC(=O)C(c1ccccc1)c1ccccc1 [Example 19, N-(4-Methoxy-butyl)-2,2-diphenyl-acetamide]
	83.5 to 86.2 °C		CCOCCNC(=O)C(c1ccccc1)c1ccccc1 [Example 20, N-(2-Ethoxy-ethyl)-2,2-diphenyl-acetamide]
	77.8 to 78.9 °C	3.13 µM	CCCOCCNC(=O)C(c1ccccc1)c1ccccc1 [Example 21, 2,2-Diphenyl-N-(2-propoxy-ethyl)-acetamide]
	90 °C		C#CCCCNC(=O)C(c1ccccc1)c1ccccc1 [Example 28, N-Pent-4-ynyl-2,2-diphenyl-acetamide]

Reference: patent US6548522B1, “Method for treating conditions related to the glutamate receptor using carboxylic acid amide derivatives” (Hoffmann-La Roche Inc., priority 1999, dated 2003)
